# Laboratory results: patent US8034940B2, “Modulators of glucocorticoid receptor, AP-1, and/or NF-κB activity and use thereof” (Bristol-Myers Squibb Company, priority 2006, dated 2011)
# Where two headings read alike, the source gives them in different places.
# System: AP-1 induced transcriptional activity
# Experiment: Cellular Transrepressional Assay (AP-1 luciferase reporter, PMA-activated A549 cells)
# Assay type: cell-based
# Details: for AP-1 Max % inh (Cellular Transrepression Assay) / Emax: maximum inhibition; for Emax: A549, 7 h, read-out: AP-1 Max % inh (Cellular Transrepression Assay)
# Method in brief: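 Compounds tested from 0.1 nM to 40 μM during a 7 h PMA (10 ng/ml) stimulation of A549 cells stably transfected with 7× AP-1 sites driving luciferase. Repression expressed as % reduction of PMA-induced luminescence; EC50 by curve fitting.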
# [1] = Homo sapiens, Cellular Transrepression Assay
# [2] = Homo sapiens, A549, Cellular Transrepression Assay
SMILES,EC50 (Cellular Transrepression Assay),EC50 [2],AP-1 Max % inh (Cellular Transrepression Assay) (Cellular Transrepression Assay),Emax [1],"EC50 (Homo sapiens, A549, read-out: AP-1 EC50, nM (Cellular Transrepression Assay))"
CC(C)(C(=O)Nc1nncs1)[C@H]1c2ccccc2Oc2nc(-c3ccc(C(=O)N4CCCC4)c(F)c3)ccc21 [Example 333],24.7 nM,,52.71%,,
CC(C)(C(=O)Nc1nncs1)[C@H]1c2ccccc2Oc2nc(-c3ccc(C(=O)N4CCC(F)(F)CC4)c(F)c3)ccc21 [Example 334],,3.36 nM,,36.2%,
CC(C)(C(=O)Nc1nncs1)[C@H]1c2ccccc2Oc2nc(-c3ccc(C(=O)N4CCC(F)(F)C4)c(F)c3)ccc21 [Example 335],,37.9 nM,,56%,
CCN(C)C(=O)c1ccc(-c2ccc3c(n2)Oc2ccccc2[C@@H]3C(C)(C)C(=O)Nc2nncs2)cc1F [Example 336],20.4 nM,,55.80%,,
CC(C)(C(=O)Nc1nncs1)[C@H]1c2ccccc2Oc2nc(-c3ccc(C(=O)N4CC(F)(F)C(F)(F)C4)c(F)c3)ccc21 [Example 337],,103 nM,,51.5%,
CC(C)(C(=O)Nc1nncs1)[C@H]1c2ccccc2Oc2nc(-c3ccc(C(=O)N4CCC(F)(F)CC4)c(Cl)c3)ccc21 [Example 339],,185 nM,,38.4%,
CC(C)(C(=O)Nc1nncs1)[C@H]1c2ccccc2Oc2nc(-c3ccc(C(=O)N4CCC(F)(F)C4)c(Cl)c3)ccc21 [Example 340],,54.8 nM,,67.6%,
CC(C)(C(=O)Nc1nncs1)[C@H]1c2ccccc2Oc2nc(-c3ccc(C(=O)N4CCCC4)c(Cl)c3)ccc21 [Example 341],14.8 nM,,50.27%,,
CCCN(C)C(=O)c1ccc(-c2ccc3c(n2)Oc2ccccc2[C@@H]3C(C)(C)C(=O)Nc2nncs2)cc1F [Example 343],18.4 nM,,29.68%,,
CC(C)(C(=O)Nc1nncs1)[C@H]1c2ccccc2Oc2nc(-c3ccc(C(=O)N4CCC[C@@H]4CO)c(F)c3)ccc21 [Example 344],,39.6 nM,,44.5%,
CCN(C)C(=O)c1ccc(-c2ccc3c(n2)Oc2ccccc2[C@@H]3C(C)(C)C(=O)Nc2nncs2)cc1Cl [Example 345],124 nM,,54.25%,,
CNC(=O)c1ccc(-c2ccc3c(n2)Oc2ccccc2[C@@H]3C(C)(C)C(=O)Nc2nncs2)cc1 [Example 348],,300 nM,,34.4%,
CC(C)(C(=O)Nc1nncs1)[C@H]1c2ccccc2Oc2nc(-c3ccc(C(=O)NC4CC4)cc3)ccc21 [Example 350],,520 nM,,45.1%,
Cc1csc(NC(=O)C(C)(C)C2c3ccccc3Oc3nc(-c4ccc(C(=O)N(C)C)cc4)ccc32)n1 (stereo not drawn) [Example 363],247 nM,,47.74%,,
Cc1cnc(NC(=O)C(C)(C)C2c3ccccc3Oc3nc(-c4ccc(C(=O)N(C)C)cc4)ccc32)s1 (stereo not drawn) [Example 364],244 nM,,58.90%,,
"CC(C)(C(=O)Nc1nncs1)[C@H]1c2ccccc2Oc2cc(OC(=O)NCc3ccccc3)ccc21 [Example 369, (s)-9-(1-(1,3,4-thiadiazole-2ylamino)-2-methyl-1-oxopropan-2-yl)-9H-xanthen-3-yl benzylcarbamate]",,33 nM,,55.5%,
CCCCNC(=O)Oc1ccc2c(c1)Oc1ccccc1[C@@H]2C(C)(C)C(=O)Nc1nncs1 [Example 370],,34.2 nM,,57.6%,

SMILES,EC50 (Cellular Transrepression Assay),EC50 [2],AP-1 Max % inh (Cellular Transrepression Assay) (Cellular Transrepression Assay),Emax [1],"EC50 (Homo sapiens, A549, read-out: AP-1 EC50, nM (Cellular Transrepression Assay))"
CCNC(=O)Oc1ccc2c(c1)Oc1ccccc1[C@@H]2C(C)(C)C(=O)Nc1nncs1 [Example 371],,22.3 nM,,48.7%,
CC(C)(C(=O)Nc1nncs1)[C@H]1c2ccccc2Oc2cc(OC(=O)NCc3ccco3)ccc21 [Example 372],,28.3 nM,,52.4%,
CC(C)(C(=O)Nc1nncs1)C1c2ccccc2Oc2cc(OC(=O)NC3CCCCC3)ccc21 (stereo not drawn) [Example 373],32.8 nM,,,45.6%,
CCCCCCCCNC(=O)Oc1ccc2c(c1)Oc1ccccc1C2C(C)(C)C(=O)Nc1nncs1 (stereo not drawn) [Example 374],,30.9 nM,,50.9%,
CC(C)(C(=O)Nc1nncs1)C1c2ccccc2Oc2cc(OC(=O)NCCc3ccccc3)ccc21 (stereo not drawn) [Example 375],82.8 nM,,51.24%,,
CC(C)(C(=O)Nc1nncs1)C1c2ccccc2Oc2cc(OC(=O)NCCc3cccs3)ccc21 (stereo not drawn) [Example 376],34.4 nM,,45.09%,,
CC(C)(C(=O)Nc1nncs1)C1c2ccccc2Oc2cc(OC(=O)NCc3ccc(F)cc3)ccc21 (stereo not drawn) [Example 377],32.7 nM,,49.10%,,
CC(C)(C(=O)Nc1nncs1)C1c2ccccc2Oc2cc(OC(=O)NCc3ccc(Cl)c(Cl)c3)ccc21 (stereo not drawn) [Example 379],74 nM,,51.21%,,
CC(C)(C(=O)Nc1nncs1)C1c2ccccc2Oc2cc(OC(=O)NCCCc3ccccc3)ccc21 (stereo not drawn) [Example 380],101 nM,,53.58%,,
CC(C)(C(=O)Nc1nncs1)C1c2ccccc2Oc2cc(OC(=O)NCCc3ccc(F)cc3)ccc21 (stereo not drawn) [Example 381],45.2 nM,,52.00%,,
CC(C)(C)NC(=O)Oc1ccc2c(c1)Oc1ccccc1C2C(C)(C)C(=O)Nc1nncs1 (stereo not drawn) [Example 382],,206 nM,,47.2%,
CCC(C)NC(=O)Oc1ccc2c(c1)Oc1ccccc1C2C(C)(C)C(=O)Nc1nncs1 (stereo not drawn) [Example 383],46.3 nM,,41.78%,,
CC(C)(C(=O)Nc1nncs1)C1c2ccccc2Oc2cc(OC(=O)NC3CCCCC3)ccc21 (stereo not drawn) [Example 385],96.5 nM,,28.99%,,
CNC(=O)Oc1ccc2c(c1)Oc1ccccc1C2C(C)(C)C(=O)Nc1nncs1 (stereo not drawn) [Example 386],,,,34.3%,89 nM
CCNC(=O)Oc1ccc2c(c1)Oc1ccccc1C2C(C)(C)C(=O)Nc1nncs1 (stereo not drawn) [Example 387],,82 nM,,52.5%,
CCCCNC(=O)Oc1ccc2c(c1)Oc1ccccc1C2C(C)(C)C(=O)Nc1nncs1 (stereo not drawn) [Example 388],,34.2 nM,,57.6%,

# Further lines, with some results ahead:
EC50 (Cellular Transrepression Assay),EC50 [2],SMILES,AP-1 Max % inh (Cellular Transrepression Assay) (Cellular Transrepression Assay),Emax [1],"EC50 (Homo sapiens, A549, read-out: AP-1 EC50, nM (Cellular Transrepression Assay))"
61.9 nM,,COc1ccc(CCNC(=O)Oc2ccc3c(c2)Oc2ccccc2C3C(C)(C)C(=O)Nc2nncs2)cc1 (stereo not drawn) [Example 384],42.30%,,
50.5 nM,,CC(C)(C(=O)Nc1nncs1)C1c2ccccc2Oc2cc(OC(=O)NCc3ccccc3)ccc21 (stereo not drawn) [Example 389],55.20%,,
42.8 nM,,COc1ccc(NC(=O)Oc2ccc3c(c2)Oc2ccccc2C3C(C)(C)C(=O)Nc2nncs2)cc1 (stereo not drawn) [Example 390],56.63%,,
52 nM,,COc1ccc(CNC(=O)Oc2ccc3c(c2)Oc2ccccc2C3C(C)(C)C(=O)Nc2nncs2)cc1 (stereo not drawn) [Example 391],44.08%,,
49.7 nM,,CC(C)(C(=O)Nc1nncs1)C1c2ccccc2Oc2cc(OC(=O)NCC3CCCCC3)ccc21 (stereo not drawn) [Example 392],44.82%,,
53.4 nM,,CC(C)(C(=O)Nc1nncs1)C1c2ccccc2Oc2cc(OC(=O)NCc3ccco3)ccc21 (stereo not drawn) [Example 393],43.80%,,
,480 nM,CC(C)(C(=O)NC#N)[C@H]1c2ccccc2Oc2nc(-c3ccc(C(=O)N4CCCC4)c(F)c3)ccc21 [Example 398],,50%,
,333 nM,CC(C)(O)c1ccc(-c2ccc3c(n2)Oc2ccccc2[C@@H]3C(C)(C)C(=O)NC#N)cc1 [Example 399],,69.3%,
,778 nM,CC(C)(C(=O)Nc1nncs1)[C@H]1c2ccccc2Oc2nc(NC(=O)NCCN3CCCC3)ccc21 [Example 401],,35.1%,
,22.5 nM,CC(C)(O)c1ccc(-c2ccc3c(n2)Oc2ccccc2[C@@H]3C(C)(C)C(=O)Nc2nncs2)cc1 [Example 404],,70.6%,
,364 nM,CC(C)(C(=O)Nc1nncs1)[C@H]1c2ccccc2Oc2nc(C3=CCN(C(=O)N4CCCC4)CC3)ccc21 [Example 408],,24.1%,
,53.3 nM,CC(C)(C(=O)Nc1ncc(C#N)s1)[C@H]1c2ccccc2Oc2nc(-c3ccc(C(=O)N4CCCC4)c(F)c3)ccc21 [Example 410],,48.1%,
,161 nM,CC(C)(C(=O)Nc1ncc([N+](=O)[O-])s1)[C@H]1c2ccccc2Oc2nc(-c3ccc(C(=O)N4CCCC4)c(F)c3)ccc21 [Example 411],,58.5%,
,67.3 nM,CCOC(=O)c1nnc(NC(=O)C(C)(C)[C@H]2c3ccccc3Oc3nc(-c4ccc(C(=O)N5CCCC5)c(F)c4)ccc32)s1 [Example 417],,54.1%,
,82.1 nM,CC(C)(C(=O)Nc1nnc(C(N)=O)s1)[C@H]1c2ccccc2Oc2nc(-c3ccc(C(=O)N4CCCC4)c(F)c3)ccc21 [Example 418],,29.1%,
,71.9 nM,CNC(=O)c1nnc(NC(=O)C(C)(C)[C@H]2c3ccccc3Oc3nc(-c4ccc(C(=O)N5CCCC5)c(F)c4)ccc32)s1 [Example 419],,46.6%,
,41.9 nM,CN(C)C(=O)c1nnc(NC(=O)C(C)(C)[C@H]2c3ccccc3Oc3nc(-c4ccc(C(=O)N5CCCC5)c(F)c4)ccc32)s1 [Example 420],,42.1%,
,49.8 nM,CCNC(=O)c1nnc(NC(=O)C(C)(C)[C@H]2c3ccccc3Oc3nc(-c4ccc(C(=O)N5CCCC5)c(F)c4)ccc32)s1 [Example 421],,42.6%,
,84.1 nM,CC(C)(C(=O)Nc1nnc(C(=O)NC2CC2)s1)[C@H]1c2ccccc2Oc2nc(-c3ccc(C(=O)N4CCCC4)c(F)c3)ccc21 [Example 422],,41.6%,
,46.7 nM,CC(C)(C(=O)Nc1nnc(C(=O)NC2CC2)s1)[C@H]1c2ccccc2Oc2nc(-c3ccc(C(=O)N4CCOCC4)cc3)ccc21 [Example 422],,63.5%,
,51.5 nM,CNC(=O)c1nnc(NC(=O)C(C)(C)[C@H]2c3ccccc3Oc3nc(-c4ccc(C(=O)N5CCOCC5)cc4)ccc32)s1 [Example 422],,50.5%,
